Converted amounts (≈) assume the structure as drawn. Read-outs that look alike come from different tables or passages of the source.
Tests used:
[1] = tested on: Penicillinresistant S. aureus (5 strains); assay: MIC, two-fold serial agar dilution, group (G+)-Ib; assay type: cell-based; details: Staphylococcus aureus, read-out: Geometric Mean of MIC, (G+)-Ib
Procedure: (§1) In the primary evaluation of the compounds of this invention, the Minimum Inhibitory Concentrations (MIC's) of the compounds were determined by the two-fold serial agar dilution method in Mueller-Hinton agar against 32 strains of test organisms in six groups.
(G+)Ib: Penicillinresistant S. aureus (5 strains)

E. coli Juhl = assay: Protective Dose50 in mice, E. coli Juhl; assay type: in vivo; details: Escherichia coli, read-out: PD50, E. coli Juhl
Procedure: (§2) Table 2, below, gives the Protective Dose50 (PD50) in mice for a number of the compounds of Formula I against selected microorganisms. Table 3 gives blood levels of various compounds of Formula I upon intramuscular administration of the test compounds to mice at a dosage of 20 mg/kg.

[2] = tested on: Ps. aeruginosa (7 strains); assay: MIC, two-fold serial agar dilution, group (G-)-III; assay type: cell-based; details: Pseudomonas aeruginosa, Mueller-Hinton agar, read-out: Geometric Mean of MIC, (G-)-III
Procedure: as §1
(G-)III: Ps. aeruginosa (7 strains)

[3] = tested on: Penicillinsensitive S. aureus (5 strains); assay: MIC, two-fold serial agar dilution, group (G+)-Ia; assay type: cell-based; details: Staphylococcus aureus, read-out: Geometric Mean of MIC, (G+)-Ia
Procedure: as §1
(G+)Ia: Penicillinsensitive S. aureus (5 strains)

[4] = tested on: Cephalothinsensitive E. coli (2 strains), Kl. pneumoniae (1 strain) and Pr. mirabilis (2 strains); assay: MIC, two-fold serial agar dilution, group (G-)-Ia; assay type: cell-based; details: Mueller-Hinton agar; 5 strains; read-out: Geometric Mean of MIC, (G-)-Ia
Procedure: as §1
(G+)Ia: Cephalothinsensitive E. coli (2 strains), Kl. pneumoniae (1
strain) and Pr. mirabilis (2 strains)

S. aureus Smith = assay: Protective Dose50 in mice, S. aureus Smith; assay type: in vivo; details: for ED50: Staphylococcus aureus, read-out: PD50, S. aureus Smith
Procedure: as §2

[5] = tested on: M. morganii (1 strain), Ent. cloacae (2 strains) and Ser. marcescens (2 strains); assay: MIC, two-fold serial agar dilution, group (G-)-II; assay type: cell-based; details: Mueller-Hinton agar; 5 strains; read-out: Geometric Mean of MIC, (G-)-II
Procedure: as §1
(G-)II: M. morganii (1 strain), Ent. cloacae (2 strains) and Ser.

[6] = blood levels upon intramuscular administration to mice; assay type: in vivo; details: mouse, im, 20 mg/kg
Procedure: as §2

[7] = tested on: Cephalothinresistant E. coli (3 strains) and Kl. pneumoniae (2 strains); assay: MIC, two-fold serial agar dilution, group (G-)-Ib; assay type: cell-based; details: Escherichia coli, read-out: Geometric Mean of MIC, (G-)-Ib, Mueller-Hinton agar; 5 strains
Procedure: as §1
(G-)Ib: Cephalothinresistant E. coli (3 strains) and Kl. pneumoniae (2

P. aeruginosa A9843A = assay: Protective Dose50 in mice, P. aeruginosa A9843A; assay type: in vivo; details: Pseudomonas aeruginosa, read-out: PD50, P. aeruginosa A9843A
Procedure: as §2

[8] = solubility of crystalline zwitterion in saline; assay type: physicochemical; details: crystalline zwitterion form

SMILES | MIC ([1]; Mueller-Hinton agar, 5 strains) [µg/mL] | ED50 (E. coli Juhl) [mg/kg] | MIC [2] [µg/mL] | MIC ([3]; Mueller-Hinton agar, 5 strains) [µg/mL] | MIC [4] [µg/mL] | ED50 (S. aureus Smith) [mg/kg] | MIC [5] [µg/mL] | AUC [6] [ng·h/mL] | Cmax [6] [ng/mL] | half-life [6] [min] | MIC [7] [µg/mL] | ED50 (P. aeruginosa A9843A) [mg/kg] | PD50, S. aureus Smith (S. aureus Smith) [mg/kg] | MIC [3] [µg/mL] | solubility in water (in words) [8] | solubility ([8]; in saline at 23° C.) [µg/mL] | MIC [1] [µg/mL]
CO/N=C(\C(=O)NC1C(=O)N2C(C(=O)[O-])=C(/C=C/C[n+]3cccc4c3CCC4)CSC12)c1nsc(N)n1 (stereo not drawn) [Compound I-1O, 7-[2-(5-Amino-1,2,4-thiadiazol-3-yl)-2-(Z)-methoxyiminoacetamido]-3-[3-(2,3-cyclopentenopyridinio)-1-propenyl]-3-cephem-4-carboxylate] | 0.35 (≈ 0.646 µM) | 0.17 | 14 (≈ 25.8 µM) | 0.17 (≈ 0.314 µM) | 0.029 (≈ 0.0535 µM) | 0.26 | 0.11 (≈ 0.203 µM) | 17000 | 28000 | 32 | 0.033 (≈ 0.0609 µM) |  |  |  |  |  | 
CNC(=O)c1cc[n+](C/C=C/C2=C(C(=O)[O-])N3C(=O)C(NC(=O)/C(=N\OC)c4nsc(N)n4)C3SC2)cc1 (stereo not drawn) [Compound I-1M, 7-[2-(5-Amino-1,2,4-thiadiazol-3-yl)-2-(Z)-methoxyiminoacetamido]-3-[3-(4-N-methylcarbamoylpyridinio)-1-propenyl]-3-cephem-4-carboxylate] | 0.7 (≈ 1.25 µM) |  | 2.3 (≈ 4.12 µM) | 0.35 (≈ 0.627 µM) | 0.029 (≈ 0.0519 µM) | 0.96 | 0.17 (≈ 0.304 µM) | 14000 | 20000 | 23 | 0.1 (≈ 0.179 µM) |  |  |  |  |  | 
CON=C(C(=O)NC1C(=O)N2C(C(=O)[O-])=C(C=CC[n+]3ccccc3)CSC12)c1nsc(N)n1 (stereo not drawn) [Compound I-1B, 7-[2-(5-Amino-1,2,4-thiadiazol-3-yl)-2-methoxyiminoacetamido]-3-[3-pyridinio-1-propen-1-yl]-3-cephem-4-carboxylate] |  |  |  |  |  | 0.44 |  | 11000 | 17000 | 21 |  | 7.7 | 0.65 |  |  |  | 
C#CCON=C(C(=O)NC1C(=O)N2C(C(=O)[O-])=C(/C=C/C[n+]3ccc(C(N)=O)cc3)CSC12)c1nsc(N)n1 (stereo not drawn) [Compound I-4H, 7-[2-(5-Amino-1,2,4-thiadiazol-3-yl)-2-propargyloxyiminoacetamido]-3-[3-(4-carbamoylpyridinio)-1-propenyl]-3-cephem-4-carboxylate] | 0.46 (≈ 0.809 µM) |  | 2.6 (≈ 4.57 µM) | 0.26 (≈ 0.457 µM) | 0.066 (≈ 0.116 µM) |  | 0.6 (≈ 1.06 µM) | 16000 | 27000 | 22 | 0.11 (≈ 0.193 µM) |  |  |  |  |  | 
CCO/N=C(\C(=O)NC1C(=O)N2C(C(=O)[O-])=C(C=CC[n+]3ccc(C(=O)O)cc3)CSC12)c1nsc(N)n1 (stereo not drawn) [Compound I-2N, 7-[2-(5-Amino-1,2,4-thiadiazol-3-yl)-2-(Z)-ethoxyiminoacetamido]-3-[3-(4-carboxypyridinio)-1-propenyl]-3-cephem-4-carboxylate] |  |  |  |  |  | 5 |  | 12000 | 22000 | 20 |  |  |  |  |  |  | 
CON=C(C(=O)NC1C(=O)N2C(C(=O)[O-])=C(/C=C/C[n+]3cccc(C(N)=O)c3)CSC12)c1nsc(N)n1 (stereo not drawn) [Compound I-1G, 7-[2-(5-Amino-1,2,4-thiadiazol-3-yl)-2-methoxyiminoacetamido]-3-[3-(3-carbamoylpyridinio)-1-propen-1-yl]-3-cephem-4-carboxylate] | 0.35 (≈ 0.643 µM) | 0.021 | 1.4 (≈ 2.57 µM) |  | 0.0094 (≈ 0.0173 µM) | 0.96 | 0.1 (≈ 0.184 µM) |  |  |  | 0.033 (≈ 0.0606 µM) | 5.92 |  | 0.2 (≈ 0.367 µM) |  |  | 
CON=C(C(=O)NC1C(=O)N2C(C(=O)[O-])=C(/C=C/C[n+]3ccc(C(N)=O)cc3)CSC12)c1nsc(N)n1 (stereo not drawn) [Compound I-1H, 7-[2-(5-Amino-1,2,4-thiadiazol-3-yl)-2-methoxyiminoacetamido]-3-[3-(4-carbamoylpyridinio)-1-propen-1-yl]-3-cephem-4-carboxylate] | 0.4 (≈ 0.735 µM) | 0.015 | 0.97 (≈ 1.78 µM) |  | 0.013 (≈ 0.0239 µM) | 0.39 | 0.1 (≈ 0.184 µM) | 14000 | 23000 | 16 | 0.043 (≈ 0.079 µM) | 3.9 |  | 0.2 (≈ 0.367 µM) | slightly soluble in water | 6000 (≈ 11000 µM) | 
CON=C(C(=O)NC1C(=O)N2C(C(=O)[O-])=C(C=CC[n+]3ccc4sc(N)nc4c3)CS[C@H]12)c1nsc(N)n1 (stereo partly drawn) [Compound I-1C, 7-[2-(5-Amino-1,2,4-thiadiazol-3-yl)-2-methoxyiminoacetamido]-3-[3-(2-amino-5-thiazolo[4,5-c]pyridinio)-1-propen-1-yl]-3-cephem-4-carboxylate] |  | 0.013 | 3.8 (≈ 6.62 µM) |  | 0.0071 (≈ 0.0124 µM) | 0.22 | 0.087 (≈ 0.152 µM) | 18000 | 21000 | 32 | 0.033 (≈ 0.0575 µM) |  |  | 0.1 (≈ 0.174 µM) |  |  | 0.2 (≈ 0.349 µM)
CON=C(C(=O)NC1C(=O)N2C(C(=O)[O-])=C(/C=C/C[n+]3cccc(CO)c3)CSC12)c1nsc(N)n1 (stereo not drawn) [Compound I-1K, 7-[2-(5-Amino-1,2,4-thiadiazol-3-yl)-2-methoxyiminoacetamido]-3-[3-(3-hydroxymethylpyridinio)-1-propenyl]-3-cephem-4-carboxylate] | 0.8 (≈ 1.5 µM) |  | 3.5 (≈ 6.58 µM) | 0.35 (≈ 0.658 µM) | 0.029 (≈ 0.0546 µM) | 0.53 | 0.2 (≈ 0.376 µM) | 14000 | 24000 | 14 | 0.044 (≈ 0.0828 µM) |  |  |  |  |  | 
C=CCON=C(C(=O)NC1C(=O)N2C(C(=O)[O-])=C(/C=C/C[n+]3ccc(C(N)=O)cc3)CSC12)c1nsc(N)n1 (stereo not drawn) [Compound I-3H, 7-[2-(Amino-1,2,4-thiadiazol-3-yl)-2-(propen-3-yloxyimino)acetamido]-3-[3-(4-carbamoylpyridinio)-1-propenyl]-3-cephem-4-carboxylate] | 0.4 (≈ 0.701 µM) |  | 1.9 (≈ 3.33 µM) | 0.23 (≈ 0.403 µM) | 0.057 (≈ 0.0999 µM) |  | 0.52 (≈ 0.911 µM) | 25000 | 19000 | 47 | 0.1 (≈ 0.175 µM) |  |  |  |  |  | 
CON=C(C(=O)NC1C(=O)N2C(C(=O)[O-])=C(C=CC[n+]3ccc(C(=O)O)cc3)CSC12)c1nsc(N)n1 (stereo not drawn) [Compound I-1N, 7-[2-(5-Amino-1,2,4-thiadiazol-3-yl)-2-methoxyiminoacetamido]-3-[3-(4-carboxypyridinio)-1-propenyl]-3-cephem-4-carboxylate] | 1.6 (≈ 2.93 µM) |  | 5.7 (≈ 10.4 µM) | 1.2 (≈ 2.2 µM) | 0.013 (≈ 0.0238 µM) | 2 | 0.3 (≈ 0.55 µM) | 18000 | 24000 | 19 | 0.066 (≈ 0.121 µM) |  |  |  |  |  | 
CON=C(C(=O)NC1C(=O)N2C(C(=O)[O-])=C(/C=C/C[n+]3ccsc3C)CSC12)c1nsc(N)n1 (stereo not drawn) [Compound I-1J, 7-[2-(5-Amino-1,2,4-thiadiazol-3-yl)-2-methoxyiminoacetamido]-3-[3-(2-methylthiazolio)-1-propen-1-yl]-3-cephem-4-carboxylate] | 0.35 (≈ 0.671 µM) | 0.029 | 1.6 (≈ 3.07 µM) | 0.17 (≈ 0.326 µM) | 0.025 (≈ 0.0479 µM) | 0.35 | 0.15 (≈ 0.288 µM) | 9700 | 19000 | 16 | 0.076 (≈ 0.146 µM) |  |  |  |  |  | 
